This is an account of results in article PMC6273194, “Synthesis and Evaluation of Aminothiazole-Paeonol Derivatives as Potential Anticancer Agents” (Molecules, 2016).

Read-outs that look alike come from different tables or passages of the source.

For assay [1], the system named is BALB/3T3 cells. Kind of assay: MTT cell viability assay, embryonic fibroblast BALB/3T3. The class given is cell-based. The note with it: Mus musculus, BALB/3T3 fibroblasts, 48 h. How it is done: (§1) Cell lines, including human gastric adenocarcinoma (AGS), human cervix adenocarcinoma (HeLa), human pancreas adenocarcinoma (PaTu8988t), human colorectal adenocarcinoma (HT-29), human glioblastoma (U87-MG), human lung adenocarcinoma (A549), mouse colon carcinoma (CT26.WT) cells and embryonic fibroblast (BALB/3T3) were purchased from Bioresource Collection and Research Center (BCRC, Taiwan) to evaluate anticancer activity of aminothiazole-paeonol derivatives. Five cell lines were cultured in different media from Gibco (Life Technologies, Grand Island, NY, USA) and Hyclone (GE Healthcare Life Science). Cells were cultured in 90% medium mixed with 10% serum at 37 °C in humidified atmosphere with 5% CO2 and grown in T-75 flask with a feeding cycle of two to three days. The composition and procedures of preparing culture media for different cell lines were followed by instruction manual of suppliers.
(§2) The different cell lines were seeded into 96-well tissue culture plates at a concentration of 5 × 10^3 cells/100 µL/well overnight. Subsequently, the cells were treated with serial concentrations of seven paeonol derivatives. After 48 h of incubation, cell viability of each cell line was determined by MTT colorimetric assay. Briefly, 100 µL of 2 mg/mL MTT reagent (Sigma-Aldrich, St. Louis, MO, USA) was added to each well and incubated for 4 h at 37 °C. Later, the medium was aspirated and 100 µL of dimethyl sulphoxide (DMSO) added to each well; finally, the OD595 of each well was measured by ELISA reader (TECAN, Wien, Austria).
(In general: Tetrazolium assays rely on reduction of a dye to a coloured formazan, in cell work by metabolically active cells.)

Assay [2] concerns human cervix adenocarcinoma (HeLa) cells. Kind of assay: MTT cell viability assay, HeLa. It counts as cell-based. The note with it: 48 h. How it is done:
as §1, §2

The subject of assay [3] is human lung adenocarcinoma (A549) cells. The assay is described as follows: MTT cell viability assay, A549. It counts as cell-based. The conditions noted are these: A549, 48 h. How it is done: as §1, §2
For assay [4], the system named is mouse colon carcinoma (CT26.WT) cells. Kind of assay: MTT cell viability assay, CT26.WT. The class given is cell-based. The note with it: 48 h. How it is done:
as §1, §2

The subject of assay [5] is human glioblastoma (U87-MG) cells. The assay is described as follows: MTT cell viability assay, U87-MG. The class given is cell-based. The conditions noted are these: U-87 MG, 48 h. How it is done:
as §1, §2

The test system of assay [6] is human colorectal adenocarcinoma (HT-29) cells. The assay is described as follows: MTT cell viability assay, HT-29. The class given is cell-based. The note with it: HT-29, 48 h. How it is done:
as §1, §2

Assay [7] deals with human gastric adenocarcinoma (AGS) cells. The assay is described as follows: MTT cell viability assay, AGS. The class given is cell-based. The conditions noted are these: 48 h. How it is done: as §1, §2
Assay [8] concerns human pancreas adenocarcinoma (PaTu8988t) cells. The assay is described as follows: MTT cell viability assay, PaTu8988t. The conditions noted are these: PaTu 8988t, 48 h. It counts as cell-based. How it is done: as §1, §2
Assay [9] deals with human glioblastoma (U87-MG) cells. The note with it: 48 h after treatment, ref [25],[26],[27],[28],[29],[30],[31],[32]; cited from earlier work.
The subject of assay [10] is human lung adenocarcinoma (A549) cells. The conditions noted are these: A549, 48 h after treatment; ref [25],[26],[27],[28],[29],[30],[31],[32]; cited from earlier work.
In assay [11] the test system is mouse colon carcinoma (CT26.WT) cells. The conditions noted are these: 72 h after treatment, ref [25],[26],[27],[28],[29],[30],[31],[32]; cited from earlier work.
Assay [12] deals with human cervix adenocarcinoma (HeLa) cells. The conditions noted are these: 48 h after treatment, ref [25],[26],[27],[28],[29],[30],[31],[32]; cited from earlier work.
Assay [13] deals with BALB/3T3 cells. The note with it: BALB/3T3, 72 h after treatment; ref [25],[26],[27],[28],[29],[30],[31],[32]; cited from earlier work.
For assay [14], the system named is human pancreas adenocarcinoma (PaTu8988t) cells. The note with it: 48 h after treatment, ref [25],[26],[27],[28],[29],[30],[31],[32]; cited from earlier work.
Assay [15] deals with human colorectal adenocarcinoma (HT-29) cells. The note with it: HT-29, 48 h after treatment; ref [25],[26],[27],[28],[29],[30],[31],[32]; cited from earlier work.
Assay [16] relates to human gastric adenocarcinoma (AGS) cells. The note with it: 24 h after treatment, ref [25],[26],[27],[28],[29],[30],[31],[32]; cited from earlier work.

In the case of `COc1ccc(S(=O)(=O)Nc2nc(-c3ccc(OC)cc3O)cs2)cc1` [Compound 13c, N-[4-(2-Hydroxy-4-methoxyphenyl)thiazol-2-yl]-4-methoxybenzenesulfonamide], the IC50 – broadly, the midpoint of a concentration-inhibition curve – is 32.7 µM in assay [1]; 5.8 µM in assay [2]; over 50 µM in assay [3]; 10 µM in assay [4]; 22.5 µM in [5]; 4.4 µM in assay [6]. The IC50 in [7] came to 4 µM; in [8], 15.8 µM.

With `COc1ccc(-c2csc(NS(=O)(=O)c3ccccc3)n2)c(O)c1` [Compound 13a, N-[4-(2-Hydroxy-4-methoxyphenyl)thiazol-2-yl]benzenesulfonamide], the IC50 is over 50 µM in assay [1]; over 50 µM in [2]; over 50 µM in [3]; over 50 µM in [4]; over 50 µM in assay [5]; 20.7 µM in assay [6]. For the same compound, the IC50 in assay [7] was over 50 µM; in [8], 31.1 µM.

On to `COc1ccc(-c2csc(NS(=O)(=O)c3ccc(F)cc3)n2)c(O)c1` [Compound 13d, 4-Fluoro-N-[4-(2-hydroxy-4-methoxyphenyl)thiazol-2-yl]benzenesulfonamide], for which the IC50 is over 50 µM in assay [1]; 13.8 µM in [2]; over 50 µM in assay [3]; over 50 µM in assay [4]; over 50 µM in [5]; 11.2 µM in assay [6]. The IC50 was found to be 7.2 µM in [7] and 31.4 µM in assay [8].

For the compound `COc1ccc(-c2csc(NS(=O)(=O)c3ccc(Br)cc3)n2)c(O)c1` [Compound 13f, 4-Bromo-N-[4-(2-hydroxy-4-methoxyphenyl)thiazol-2-yl]benzenesulfonamide], the IC50 is over 50 µM in assay [1]; 16.4 µM in assay [2]; over 50 µM in assay [3]; over 50 µM in assay [4]; over 50 µM in assay [5]; 11 µM in [6]. Besides, the 50% inhibitory concentration (IC50) in assay [7] is over 50 µM; in assay [8], 22.8 µM.

In the case of `O=c1[nH]cc(F)c(=O)[nH]1` [Compound 5-FU, 5-fluorouracil, reference compound], the IC50 in assay [9] was 4.9 µM; in assay [10], 10.3 µM; in [11], 61 µM; in assay [1] it was 1 µM; in assay [2] it was 2.2 µM; in [12], 0.232 µM. Moreover, the IC50 in [13] was 13 µM; in [3] it was over 50 µM; in [4] it was 9.2 µM; in assay [5] it was over 50 µM; in assay [14], 11.3 µM; in assay [15] it was 19.3 µM. For the same compound, the half-inhibitory concentration (IC50) in [6] was 7.2 µM; in assay [16], 79.5 µM; in assay [7] it was 43.8 µM; in assay [8], 12.5 µM.

As to `COc1ccc(-c2csc(NS(=O)(=O)c3ccc(C)cc3)n2)c(O)c1` [Compound 13b, N-[4-(2-Hydroxy-4-methoxyphenyl)thiazol-2-yl]-4-methylbenzenesulfonamide], the IC50 in [1] was over 50 µM; in [2], 27.4 µM; in [3] it was over 50 µM; in [4], over 50 µM; in assay [5], over 50 µM; in [6] it was 14.1 µM. Also, the IC50 in assay [7] amounted to 22 µM; in assay [8], 38.7 µM.

As to `COc1ccc(-c2csc(NS(=O)(=O)c3ccc(Cl)cc3)n2)c(O)c1` [Compound 13e, 4-Chloro-N-[4-(2-hydroxy-4-methoxyphenyl)thiazol-2-yl]benzenesulfonamide], the IC50 is over 50 µM in [1]; over 50 µM in assay [2]; over 50 µM in [3]; over 50 µM in [4]; over 50 µM in assay [5]; 13.4 µM in assay [6]. The concentration for half-maximal inhibition (IC50) in [7] and in [8] was over 50 µM in each case.

Regarding `COc1ccc(-c2csc(NS(=O)(=O)c3ccc([N+](=O)[O-])cc3)n2)c(O)c1` [Compound 13g, N-[4-(2-Hydroxy-4-methoxyphenyl)thiazol-2-yl]-4-nitrobenzenesulfonamide], the IC50 is 32.2 µM in assay [1]; over 50 µM in assay [2]; over 50 µM in assay [3]; 30 µM in assay [4]; over 50 µM in assay [5]; 47.8 µM in assay [6]. Also, the IC50 in assay [7] and in assay [8] was over 50 µM throughout.
